Measured values reported in patent US20070036793A1, “Methods for use of an lkb1/strad7mo25 complex” (priority 2003, published 2007).
Entries after “also recorded” stand apart in the source; their conditions may differ.

Experiments:
[1] = target: T1, AMPK (Homo sapiens, UniProt Q13131); test: Activation and Thr-172 phosphorylation of endogenous AMPK in HeLa cells with or without stably expressed LKB1; format: cell-based; conditions: earlier unpublished results
T1 construct: Endogenous AMPK was immunoprecipitated from the cell extracts and assayed; endogenous in cells; host or cells: HeLa cells (control, or stably expressing wild type or kinase-dead LKB1)

[2] = tested on: acetyl-CoA carboxylase (ACC); test: Phosphorylation of acetyl-CoA carboxylase at Ser-79 in HeLa cells expressing LKB1; format: cell-based, human; conditions: HeLa cells stably expressing wild type LKB1; 2 mM AICA riboside or 10 mM phenformin, 60 min
Experimental: FIG. 18: Restoration of the ability of AMPK to be activated by AICA riboside and phenformin in HeLa cells by expression of LKB1. Control HeLa cells (lanes 1, 2, 3), HeLa cells expressing wild type (WT) LKB1 (lanes 4, 5, 6) and kinase dead (D194A, KD) mutant LKB1 (lanes 7, 8, 9) were either left unstimulated or treated with 2 mM AICA riboside or 10 mM phenformin for 60 min and lysed. (A) Endogenous AMPK was immunoprecipitated from the cell extracts and assayed. (B) The cell lysates was immunoblotted with antibodies recognising AMPKα1 phosphorylated at Thr172 or total AMPKα1; the results were analysed using the LI-COR IR Odyssesy™ imager as described under Materials and Methods, and are expressed as a ratio of the two signals. (C) The cell lysates was analysed by Western blotting and the membranes probed with antibodies recognising ACC phosphorylated at Ser-79, or streptavidin to determine total […]. The results were analysed using the LI-COR IR imager as for (B).
To analyse phosphorylation of ACC, samples were analysed by SDS-PAGE, transferred to nitrocellulose (BioRad) and incubated in Odyssey™ Blocking buffer containing 0.2% Tween-20 for 1 h. […] The membranes were scanned in two different channels using the Odyssey™ IR imager, the results quantified using Odyssey™ software and expressed as a ratio of the signal obtained with the pACC antibody to that obtained with streptavidin. […]

[3] = tested on: AMPK; test: AMPK activation by drugs in other cell types; format: cell-based
[4] = tested on: AMPK-related kinases (NUAK2, QIK, QSK, SIK, MARK1, MARK2/3, MARK4); test: Activity of endogenous AMPK-related kinases immunoprecipitated from HeLa cells after phenformin; format: cell-based, human; conditions: HeLa cells (control, wild type or kinase inactive LKB1), 10 mM phenformin, 1 h
Experimental: FIG. 29. Activity of AMPK-related kinases In HeLa cells. […] AMPKα1 and AMPK-related kinases were immunoprecipitated from the cell lysates, and in vitro kinase activity towards the AMARA peptide was measured as described in Materials and Methods (Example 4). To confirm equal expression of the kinases in each sample, cell lysates (AMPKα1, MARK2/3 and MARK4) or immunoprecipitated proteins (NUAK2, QIK, QSK, SIK and MARK1) were subjected to SDS-PAGE and western immunoblot analysis. All AMPK-related kinases migrated with the expected molecular mass. In the case of AMPKα1, cell lysates were immunoblotted with a pThr172 antibody (P-AMPK), that recognises the phosphorylated T-loop. Results shown are average + SD of 2-4 assays and are representative of at least two independent experiments.
Cell culture, stimulation and cell lysis. […] Protein concentrations were determined by the Bradford method with bovine serum albumin as the standard (Bradford, 1976).
0.1-1 mg of Hela or MEF lysate protein was incubated at 4° C. for 1 h on a shaking platform with 5 μg of the corresponding antibody, which had been previously conjugated to 5 μl of protein G-Sepharose. The immunoprecipitates were washed twice with 1 ml of Lysis Buffer containing 0.5 M NaCl, and twice with 1 ml of Buffer A. Phosphotransferase activity towards the AMARA peptide was then measured in a total assay volume of 50 μl as described above.

T1 sequence (Q13131 whole entry): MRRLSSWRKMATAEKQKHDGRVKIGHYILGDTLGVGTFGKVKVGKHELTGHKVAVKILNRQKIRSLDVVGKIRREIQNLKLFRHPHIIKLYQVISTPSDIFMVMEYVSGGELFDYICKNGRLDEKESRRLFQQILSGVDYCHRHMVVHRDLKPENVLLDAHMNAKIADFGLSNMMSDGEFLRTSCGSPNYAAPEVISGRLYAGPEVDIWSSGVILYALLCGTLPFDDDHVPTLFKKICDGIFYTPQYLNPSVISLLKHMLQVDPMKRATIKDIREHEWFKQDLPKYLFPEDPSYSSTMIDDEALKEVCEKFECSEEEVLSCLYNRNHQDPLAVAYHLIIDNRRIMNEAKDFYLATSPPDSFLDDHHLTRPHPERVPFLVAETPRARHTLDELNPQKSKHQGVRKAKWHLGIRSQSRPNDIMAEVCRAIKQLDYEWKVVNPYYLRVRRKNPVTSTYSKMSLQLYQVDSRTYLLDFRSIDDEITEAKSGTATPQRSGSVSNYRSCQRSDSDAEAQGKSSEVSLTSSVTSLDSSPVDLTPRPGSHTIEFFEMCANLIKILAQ
T1 sequence (Q9Y478 2-270 partner limits assumed): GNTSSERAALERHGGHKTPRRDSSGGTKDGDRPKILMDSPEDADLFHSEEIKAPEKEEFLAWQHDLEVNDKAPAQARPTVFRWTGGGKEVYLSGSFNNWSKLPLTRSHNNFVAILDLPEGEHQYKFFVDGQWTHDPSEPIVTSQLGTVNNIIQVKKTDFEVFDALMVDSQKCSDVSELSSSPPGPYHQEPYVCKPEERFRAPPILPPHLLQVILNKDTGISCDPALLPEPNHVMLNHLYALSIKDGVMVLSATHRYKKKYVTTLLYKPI
T1 sequence (P54619 whole entry partner): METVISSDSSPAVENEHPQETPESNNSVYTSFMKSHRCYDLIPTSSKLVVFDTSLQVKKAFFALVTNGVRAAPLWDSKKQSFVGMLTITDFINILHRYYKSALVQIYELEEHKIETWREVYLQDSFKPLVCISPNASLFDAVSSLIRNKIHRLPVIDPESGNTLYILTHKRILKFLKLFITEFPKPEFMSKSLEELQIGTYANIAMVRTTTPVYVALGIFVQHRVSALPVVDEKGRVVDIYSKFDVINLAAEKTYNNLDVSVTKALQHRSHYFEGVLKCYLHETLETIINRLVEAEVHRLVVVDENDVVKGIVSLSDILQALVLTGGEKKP

NC(=O)c1ncn([C@@H]2O[C@H](CO)[C@@H](O)[C@H]2O)c1N [AICA riboside, 5-aminoimidazole-4-carboxamide (AICA) riboside]
activation of AMPK [1]: not activated | phosphorylation of downstream target ACC (Ser-79) [2]: larger effect than phenformin; also recorded: restored

[H]/N=C(/N)N/C(=N/[H])NCCc1ccccc1 [phenformin]
activation of AMPK compared with metformin [3]: more rapidly and more potently than metformin | activity of AMPK-related kinases [4]: none of the AMPK-related kinases were significantly activated | phosphorylation of downstream target ACC (Ser-79) [2]: restored
